According to patent publication US20230167132A1, “FORMS AND COMPOSITIONS OF INHIBITORS OF PLASMA KALLIKREIN” (Takeda Pharmaceutical Company Limited, priority 2020, published 2023):
Several values for one entry are separate records, joined by “and”; a condition that tells them apart may be missing. Equal entries are not always repeated.

How the values were obtained:
Format in all cases: physicochemical
[1] = Storage for one week at 40° C./75% RH and 25° C./97% RH, XRPD; details: for stability under storage: summary of scaled-up solid forms, conditions not restated
[2] = Intrinsic Dissolution Rate (IDR), Sirius inForm; details: for IDR Sector 1 average (pH 2.0) / IDR Sector 1 pH 2.0: pH 2.0, 37° C.; for IDR Sector 1 pH 2.0: individual runs; for sector 1 IDR compared to free base form Compound 1 Form 1 / other forms: pH 2.0, comparison in words; for XRPD Analysis Post Dissolution: solid form of disc after IDR analysis
Method: About 40 mg of the sample was compressed in a 6 mm disc recess, under 100 kg for 2 minutes, with greaseproof paper on the compression base, to form nondisintegrating discs. The discs were then plugged with a bung so that only one surface was exposed to the media during analysis and transferred to the Sirius inForm dissolution apparatus. Analysis was performed at 37° C. in 40 mL media (36 mL ISA water, 4 mL 0.1 M Acetate Phosphate Buffer). Dissolution data were collected over 4 pH sectors (pH 2.0, 5.5, 6.5, and 7.4) for a total of 2 hours—30 minutes per sector, with UV spectra collected every 30 seconds. A stir speed of 225 rpm was used with a 10 mm path length probe. The IDR was calculated based on the surface area of the 3/6/8 mm disc recess used (28.3 mm2 surface area). XRPD analysis was performed on all samples, both after compression of the material into the disc recess, and post dissolution analysis to observe any change in form. XRPD diffractograms were collected on the Bruker C2.

[3] = Gravimetric vapour sorption (GVS) analysis; details: for GVS mass increase: between 0 and 90% RH; for XRPD post GVS analysis: change of solid form after GVS; for GVS hygroscopicity: classification in words
[4] = one week, material isolated from salt/cocrystal screening experiments
[5] = one week (7 days), scaled-up / characterised material
[6] = one week (7 days), scaled-up / characterised material, listed as Form 2

Row | Structure (SMILES) | stability under storage [1] | Storage 40° C./75% RH, XRPD [1, 4] | IDR Sector 1 average (pH 2.0) [2] [μg/min/cm^2] | GVS mass increase [3] [%] | XRPD post GVS analysis [3] | Storage 25° C./97% RH, XRPD [1, 5] | Storage 40° C./75% RH, XRPD [1, 5] | also measured
1 | O=C(NCc1ncn2ccc(Cl)c(F)c12)c1cn(Cc2cn3cc(C4CC4)ccc3n2)nn1 [Compound 6] | stable under storage |  |  |  |  |  |  | 
2 | CS(=O)(=O)O.O=C(NCc1ncn2ccc(Cl)c(F)c12)c1cn(Cc2cn3cc(C4CC4)ccc3n2)nn1 [Mesylate salt—Pattern 2] |  | unchanged |  |  |  |  |  | 
3 | O=C(NCc1ncn2ccc(Cl)c(F)c12)c1cn(Cc2cn3cc(C4CC4)ccc3n2)nn1.O=C(O)CCC(=O)O [Compound 4] | stable under storage | unchanged | 255.5 | 0.16 | no observed change | unchanged by XRPD | unchanged by XRPD | IDR Sector 1 pH 2.0 ([2]; listed as Succinate Pattern 1): 270.8 μg/min/cm^2 and 240.1 μg/min/cm^2; sector 1 IDR compared to free base form Compound 1 Form 1 / other forms [2]: increased sector 1 IDR; XRPD Analysis Post Dissolution ([2]; listed as Compound 4 Pattern 1): additional peaks observed in XRPD; XRPD Analysis Post Dissolution ([2]; listed as Succinate Pattern 1): Additional peaks observed; GVS hygroscopicity ([3]; listed as Compound 4 Pattern 1): non-hygroscopic; GVS hygroscopicity ([3]; listed as succinate): reduced hygroscopicity
4 | O=C(NCc1ncn2ccc(Cl)c(F)c12)c1cn(Cc2cn3cc(C4CC4)ccc3n2)nn1 [Compound 1 Form 2, N-((7-chloro-8-fluoroimidazo[1,5-a]pyridin-1-yl)methyl)-1-((6-cyclopropylimidazo[1,2-a]pyridin-2-yl)methyl)-1H-1,2,3-triazole-4-carboxamide] |  |  | 290.8 |  | decrease. Mixture of Freebase Patterns 2 & 3 | Mixture of Compound 1 - Form 1, Compound 1 - | Free base, Compound 1 - Form 1 | XRPD Analysis Post Dissolution [2]: Conversion to Compound 1 - Form 1; GVS increase in mass ([3]; between 80 and 90% RH): 4%; XRPD post GVS analysis ([3]; listed as Form 2): convert to Form 1; GVS hygroscopicity [3]: Hygroscopic; Storage 25° C./97% RH, XRPD [1, 6]: Peaks corresponding to a suspected hydrated phase; Storage 40° C./75% RH, XRPD [1, 6]: convert to Form 1
5 | O=C(NCc1ncn2ccc(Cl)c(F)c12)c1cn(Cc2cn3cc(C4CC4)ccc3n2)nn1.O=C(O)C(O)C(O)C(=O)O [Compound 7] |  | unchanged | 656.4 | 3.4 | No observed change | unchanged by XRPD | unchanged by XRPD | IDR Sector 1 pH 2.0 ([2]; listed as L-Tartrate Pattern 1): 647.0 μg/min/cm^2 and 665.7 μg/min/cm^2; XRPD Analysis Post Dissolution [2]: poorly crystalline post analysis; GVS hygroscopicity ([3]; listed as Compound 7 Pattern 1): hygroscopic; GVS hygroscopicity ([3]; listed as L-Tartrate Pattern 1): Poorly crystalline, hygroscopic; GVS hygroscopicity ([3]; listed as L-tartrate): hygroscopic
6 | O=C(NCc1ncn2ccc(Cl)c(F)c12)c1cn(Cc2cn3cc(C4CC4)ccc3n2)nn1.O=C(O)/C=C/C(=O)O [Compound 9] | stable under storage | unchanged | 78.3 | 0.6 | no observed change | unchanged by XRPD | unchanged by XRPD | IDR Sector 1 pH 2.0 ([2]; listed as Fumarate Pattern 1): 76.8 μg/min/cm^2 and 79.8 μg/min/cm^2; XRPD Analysis Post Dissolution ([2]; listed as Compound 9 Pattern 1): Additional peaks observed in XRPD; XRPD Analysis Post Dissolution ([2]; listed as Fumarate Pattern 1): Additional peaks observed; GVS hygroscopicity ([3]; listed as Compound 9 Pattern 1): slightly hygroscopic; GVS hygroscopicity ([3]; listed as fumarate): reduced hygroscopicity
7 | O=C(NCc1ncn2ccc(Cl)c(F)c12)c1cn(Cc2cn3cc(C4CC4)ccc3n2)nn1 [Compound 11] |  | unchanged by XRPD |  |  |  |  |  | 
8 | CS(=O)(=O)O.O=C(NCc1ncn2ccc(Cl)c(F)c12)c1cn(Cc2cn3cc(C4CC4)ccc3n2)nn1 [Mesylate salt—Pattern 3] |  | unchanged |  |  |  |  |  | 
9 | O=C(NCc1ncn2ccc(Cl)c(F)c12)c1cn(Cc2cn3cc(C4CC4)ccc3n2)nn1 [Amorphous form of Compound 1, N-((7-chloro-8-fluoroimidazo[1,5-a]pyridin-1-yl)methyl)-1-((6-cyclopropylimidazo[1,2-a]pyridin-2-yl)methyl)-1H-1,2,3-triazole-4-carboxamide] |  |  |  |  | convert to Form 1 | convert to Form 1 | convert to Form 1 | form conversion upon heating ([1]; heating to 150° C.): convert to Form 1
10 | O=C(NCc1ncn2ccc(Cl)c(F)c12)c1cn(Cc2cn3cc(C4CC4)ccc3n2)nn1.O=C(O)C[C@H](O)C(=O)O [Compound 3] | stable under storage | Slight changes | 1791 | 0.22 | no observed change | unchanged by XRPD | unchanged by XRPD | IDR Sector 1 pH 2.0 ([2]; listed as L-malate Pattern 1): 1569 μg/min/cm^2 and 2013 μg/min/cm^2; sector 1 IDR compared to free base form Compound 1 Form 1 / other forms ([2]; listed as Compound 3 Form 1): highest IDR; sector 1 IDR compared to free base form Compound 1 Form 1 / other forms ([2]; listed as Compound 3 Pattern 1): increased sector 1 IDR; XRPD Analysis Post Dissolution ([2]; listed as Compound 3 Pattern 1): additional peaks observed in XRPD; XRPD Analysis Post Dissolution ([2]; listed as L-malate Pattern 1): Additional peaks observed; GVS hygroscopicity ([3]; listed as Compound 3 Pattern 1): slightly hygroscopic; GVS hygroscopicity ([3]; listed as L-malate): reduced hygroscopicity
11 | O=C(NCc1ncn2ccc(Cl)c(F)c12)c1cn(Cc2cn3cc(C4CC4)ccc3n2)nn1 [Compound 1 Form 3, N-((7-chloro-8-fluoroimidazo[1,5-a]pyridin-1-yl)methyl)-1-((6-cyclopropylimidazo[1,2-a]pyridin-2-yl)methyl)-1H-1,2,3-triazole-4-carboxamide] |  |  |  | 0.5 | between 0 and 90% RH. Unchanged by XRPD post | Unchanged by XRPD | Unchanged by XRPD | GVS hygroscopicity [3]: Slightly hygroscopic
12 | O=C(NCc1ncn2ccc(Cl)c(F)c12)c1cn(Cc2cn3cc(C4CC4)ccc3n2)nn1.O=P(O)(O)O [Compound 5] | stable under storage | unchanged | 404.1 | 1.2 | no observed change | unchanged by XRPD | unchanged by XRPD | IDR Sector 1 pH 2.0 ([2]; listed as Phosphate Pattern 1): 364.7 μg/min/cm^2 and 443.4 μg/min/cm^2; sector 1 IDR compared to free base form Compound 1 Form 1 / other forms [2]: increased sector 1 IDR; XRPD Analysis Post Dissolution ([2]; listed as Phosphate Pattern 1): Partial conversion to Compound 1; GVS hygroscopicity ([3]; listed as Compound 5 Pattern 1): slightly hygroscopic; GVS hygroscopicity ([3]; listed as phosphate): reduced hygroscopicity
13 | CS(=O)(=O)O.O=C(NCc1ncn2ccc(Cl)c(F)c12)c1cn(Cc2cn3cc(C4CC4)ccc3n2)nn1 [Mesylate salt—Pattern 1] |  | changes to its XRPD pattern with peaks corresponding to Compound 1 Form 1 being present |  |  |  |  |  | 
